{"source": "paper PMC7790160", "about": "(Journal of pharmaceutical sciences, 2020)", "key": {"[1]": {"system": "H1975-CL1", "experiment": "Apoptosis assay", "format": "cell-based", "details": "12 μM ERL alone or with 2 μM CDODA-Me, 48 h"}, "[2]": {"system": "HCC827–4 μM", "experiment": "Clonogenic assay", "format": "cell-based", "details": "12 μM ERL, 48 h, reseeded, p < 0.001"}, "[3]": {"system": "HCC827", "experiment": "Clonogenic assay", "format": "cell-based", "details": "12 μM ERL, 48 h, reseeded, p < 0.001"}, "[4]": {"system": "HCC827–4μM", "experiment": "Apoptosis assay", "format": "cell-based", "details": "12 μM ERL alone or with 2 μM CDODA-Me, 48 h"}, "[5]": {"system": "HCC827", "experiment": "Apoptosis assay", "format": "cell-based", "details": "12 μM ERL, 2 μM CDODA-Me alone or in combination, 48 h"}, "[6]": {"system": "H460", "experiment": "Clonogenic assay", "format": "cell-based", "details": "12 μM ERL, 48 h, reseeded, p < 0.001"}, "[7]": {"system": "HCC827-CL4", "experiment": "Apoptosis assay", "format": "cell-based", "details": "12 μM ERL alone or with 2 μM CDODA-Me, 48 h"}, "[8]": {"system": "H460 (KRAS mutated)", "experiment": "Cytotoxicity assay", "format": "cell-based"}, "[9]": {"system": "p-EGFR", "experiment": "Western blot analysis of p-EGFR", "format": "cell-based", "details": "48 h"}, "[10]": {"system": "EGFR mutated non–small cell lung cancer", "details": "patients harboring exon 19 deletion / exon 21 EGFR mutations; cited from earlier work"}, "[11]": {"system": "H1975", "experiment": "Apoptosis assay", "format": "cell-based", "details": "12 μM ERL alone or with 2 μM CDODA-Me, 48 h"}, "[12]": {"system": "H460", "experiment": "Apoptosis assay", "format": "cell-based", "details": "12 μM ERL alone or with 2 μM CDODA-Me, 48 h"}, "[13]": {"system": "p-MET", "experiment": "Western blot analysis of p-MET", "format": "cell-based", "details": "12 μM ERL alone or with 2 μM CDODA-Me, 48 h"}, "[14]": {"system": "H1975 (T790M EGFR ERL Resistant)", "experiment": "Cytotoxicity assay", "format": "cell-based", "details": "H1975, 48 h, single agent; no unit printed in Table 3 (b74 gives μM)"}, "[15]": {"system": "H1299 (p53 mutated)", "experiment": "Cytotoxicity assay", "format": "cell-based", "details": "H1299, 48 h, single agent"}, "[16]": {"system": "HCC827-Cl4 (T790M EGFR ERL Resistant)", "experiment": "Cytotoxicity assay", "format": "cell-based", "details": "HCC827-CL4, 48 h, single agent; no unit printed in Table 3 (b74 gives μM)"}, "[17]": {"system": "HCC827–4 μM (Acquired 4 μM ERL Resistant)", "experiment": "Cytotoxicity assay", "format": "cell-based", "details": "48 h, single agent, no unit printed in Table 3 (b74 gives μM)"}, "[18]": {"details": "cited from earlier work"}, "[19]": {"system": "NSCLC cell lines", "experiment": "Cytotoxicity assay, statements across cell lines", "format": "cell-based"}, "[20]": {"system": "H1975-CL1 (EGFR G796D mutation rociletinib resistant)", "experiment": "Cytotoxicity assay", "format": "cell-based", "details": "H1975 CL1, 48 h, single agent; no unit printed in Table 3 (b74 gives μM)"}, "[21]": {"system": "total MET", "experiment": "Western blot analysis of total MET", "format": "cell-based", "details": "all cell lines, 48 h"}, "[22]": {"system": "HCC827", "experiment": "Cytotoxicity assay", "format": "cell-based", "details": "HCC827, 48 h, single agent; no unit printed in Table 3 (b74 gives μM)"}, "[23]": {"system": "total EGFR", "experiment": "Western blot analysis of total EGFR", "format": "cell-based", "details": "all cell lines, 48 h"}}, "data": [{"smiles": "C#Cc1cccc(Nc2ncnc3cc(OCCOC)c(OCCOC)cc23)c1", "note": "[ERL, erlotinib]", "values": [{"measurement": "apoptotic cells", "setting": "[1]", "result": "9 ± 2.7", "unit": "%"}, {"measurement": "colony formation", "setting": "[2]", "result": "decreased colony formation"}, {"measurement": "colony formation", "setting": "[3]", "result": "decreased colony formation"}, {"measurement": "apoptotic cells", "setting": "[4]", "result": "11 ± 2.9", "unit": "%"}, {"measurement": "apoptotic cells", "setting": "[5]", "result": "~64.23 ± 1.7", "unit": "%"}, {"measurement": "colony formation", "setting": "[6]", "result": "decreased colony formation"}, {"measurement": "apoptotic cells", "setting": "[7]", "result": "8 ± 2.5", "unit": "%"}, {"measurement": "IC50", "setting": "[8]; Homo sapiens, NCI-H460, 48 h", "result": "16.3 ± 1.2", "unit": "µM"}, {"measurement": "p-EGFR expression", "setting": "[9]; H1975-CL1, 12 μM ERL alone or with 2 μM CDODA-Me", "result": "not significant"}, {"measurement": "P-EGFR expression", "setting": "[9]; HCC827, 12 μM ERL (p < 0.01) or 12 μM ERL + 2 μM CDODA-Me (p < 0.05)", "result": "significantly decreased"}, {"measurement": "patients with decreased tumor volume", "setting": "[10]", "result": 70, "unit": "%"}, {"measurement": "apoptotic cells", "setting": "[11]", "result": "15 ± 3.7", "unit": "%"}, {"measurement": "apoptotic cells", "setting": "[12]", "result": "5 ± 4.3", "unit": "%"}, {"measurement": "expression of p-MET", "setting": "[13]; H1975-CL1, p < 0.001", "result": "decreased p-MET expression"}, {"measurement": "expression of p-MET", "setting": "[13]; H1975, p < 0.01", "result": "decreased p-MET expression"}, {"measurement": "expression of p-MET", "setting": "[13]; HCC827-CL4, p < 0.01", "result": "decreased p-MET expression"}]}, {"smiles": "COC(=O)[C@@]1(C)CC[C@]2(C)CC[C@]3(C)C(=CC(=O)[C@@H]4[C@@]5(C)C=C(C#N)C(=O)C(C)(C)[C@@H]5CC[C@]43C)[C@@H]2C1", "note": "[CDODA-Me, Methyl 2-cyano-3, 11-dioxo-18b-olean-1, 12-dien-30-oate]", "values": [{"measurement": "IC50", "setting": "[14]", "result": "6.2 ± 1.64", "unit": "µM"}, {"measurement": "IC50", "setting": "[15]", "result": "5.4 ± 2.4", "unit": "µM"}, {"measurement": "IC50", "setting": "[16]", "result": "5.7 ± 2.04", "unit": "µM"}, {"measurement": "IC50", "setting": "[17]", "result": "4.4 ± 1.3", "unit": "µM"}, {"measurement": "apoptotic cells", "setting": "[5]", "result": "approximately 21.68 ± 1.8%"}, {"measurement": "permeability (classification)", "setting": "[18]", "result": "high permeability"}, {"measurement": "solubility (classification)", "setting": "[18]", "result": "low solubility"}, {"measurement": "cell viability", "setting": "[19]; 2 μM, all cell lines", "result": "< 20", "unit": "%"}, {"measurement": "IC20", "setting": "[19]; resistant HCC827 cells", "result": 2, "unit": "µM"}, {"measurement": "IC50", "setting": "[20]", "result": "6.6 ± 1.1", "unit": "µM"}, {"measurement": "IC50", "setting": "[8]; H460, 48 h, single agent, no unit printed in Table 3 (b74 gives μM)", "result": "5.5 ± 0.8", "unit": "µM"}, {"measurement": "total MET expression", "setting": "[21]", "result": "no effect"}, {"measurement": "IC50", "setting": "[22]", "result": "4.5 ± 1.6", "unit": "µM"}, {"measurement": "total EGFR expression", "setting": "[23]", "result": "no effect"}]}]}
